EP0696280B1, “SUBSTITUTED PYRROLIDIN-3-YL-ALKYL-PIPERIDINES USEFUL AS TACHYKININ ANTAGONISTS” (MERRELL PHARMACEUTICALS INC., priority 1993, dated 1994)
Where a name gives a salt, the structure may show the parent alone. Read-outs that look alike come from different tables or passages of the source.

Columns and labels:
[1] = target: T1, NK1 receptor (Homo sapiens, UniProt P25103); experiment: Antagonism of NK1 receptor mediated (SP-induced) phosphatidylinositol turnover in UC11 cells; type: cell-based
T1 construct: endogenous in cells; host or cells: UC11 cells
T1 sequence (P25103 whole entry): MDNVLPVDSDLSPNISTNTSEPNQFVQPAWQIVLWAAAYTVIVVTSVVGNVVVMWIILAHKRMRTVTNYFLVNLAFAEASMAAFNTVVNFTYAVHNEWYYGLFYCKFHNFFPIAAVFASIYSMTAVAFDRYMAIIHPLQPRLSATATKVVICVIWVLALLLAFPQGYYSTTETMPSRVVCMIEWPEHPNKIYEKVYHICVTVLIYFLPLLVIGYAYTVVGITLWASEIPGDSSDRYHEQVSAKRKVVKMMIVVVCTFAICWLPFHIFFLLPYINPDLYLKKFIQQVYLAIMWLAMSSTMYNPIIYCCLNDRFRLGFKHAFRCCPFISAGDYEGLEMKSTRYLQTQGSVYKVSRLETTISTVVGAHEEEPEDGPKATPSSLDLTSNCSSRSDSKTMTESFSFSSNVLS
Procedure: Tachykinin-mediated inositol phosphate accumulation was measured in UCll or SKLKB82#3 cells in the presence and absence of NK1 or NK2 receptor antagonists, respectively. Tissues were incubated in Krebs-Henseleit buffer at 37°C with 95% O2-5% CO2 gassing. Tissues were then incubated with fresh buffer containing 100 µCi of myo-[2-^3H(N)] inositol at 37°C for 60 min with gentle gassing. After washing twice at room temperature in 5 ml buffer containing 10 mM LiCl, tissues were incubated for 30 min at room temperature with a buffer change at 15 min. Buffer was removed and Krebs-Henseleit buffer (containing 40 µg/ml bacitracin, 4 µg/ml each of leupeptin and chymostatin, 0.1% bovine serum albumin and 10 mM each of thiorphan and LiCl) added. After 15 min, SP was added to UCll cells or NKA to SKLKB82#3 cells at various concentrations to start the reaction. After incubation for 60 min at room temperature the reaction was terminated by addition of 930 µl chloroform: methanol (1:2 by volume) to each tube, followed by 310 µl chloroform and 310 µl doubly distilled water. Samples were vortexed, centrifuged, and 0.9 ml of the aqueous (top) phase removed and added to 2 ml ddH2O. The mixture was vortexed and loaded onto a 50% Bio-Rad AG 1-X8 (formate form, 100-200 mesh) exchange column (Bio-Rad Laboratories, Hercules, CA). The columns were washed, in order, with: 1) 10 ml doubly distilled water, 2) 5 ml of 5 mM disodium tetraborate/60 mM sodium formate, and 3) 5 ml of 1 M ammonium formate/0.1 M formic acid. The third elution was collected and 1 ml counted in 7 ml scintillation fluid. A 50 µl aliquot of the organic (bottom) phase was removed, dried in a scintillation vial and counted in 7 ml scintillation fluid.
The ratio of DPM in the aqueous phase aliquot (total inositol phosphates) to the DPM in the 50 µl organic phase aliquot (total [^3H]inositol incorporated) was calculated for each sample. Data are expressed as a percent of agonist-induced accumulation of [^3H]-inositol phosphates over basal levels. The ratios in the presence of test compound and/or standards were compared to the ratios for control samples (i.e. no stimulating agonist). Dose-response graphs were constructed and the abilities of the test compounds to inhibit tachykinin-induced phosphatidylinositol turnover determined with the aid of a computer program. […] Data is expressed as percent stimulation of total inositol phosphate accumulation over basal levels and normalized to the maximum response produced by SP. […] Schild analysis is performed using dose response curves (such as those presented in Figures 1a and 1b) to obtain a value indicative of the strength of a competitive antagonist and is expressed as the pA2, which is the negative logarithm of the molar concentration of antagonist which reduces the effect of a dose of agonist to one-half of that expected at the dose of agonist. […]
Values are mean (95% confidence limits) derived from Schild analysis of 2-3 experiments per compound per receptor.

[2] = target: T2, human jejunal NK2 receptor (Homo sapiens, UniProt P21452); experiment: Antagonism of iodinated tachykinin binding to NK2 receptor (125iodohistidyl-1-neurokinin A, HSKR-1 cell membranes)
T2 construct: expressed in transfected cells; host or cells: HSKR-1 cells (mouse 3T3 fibroblasts)
T2 sequence (P21452 1-398): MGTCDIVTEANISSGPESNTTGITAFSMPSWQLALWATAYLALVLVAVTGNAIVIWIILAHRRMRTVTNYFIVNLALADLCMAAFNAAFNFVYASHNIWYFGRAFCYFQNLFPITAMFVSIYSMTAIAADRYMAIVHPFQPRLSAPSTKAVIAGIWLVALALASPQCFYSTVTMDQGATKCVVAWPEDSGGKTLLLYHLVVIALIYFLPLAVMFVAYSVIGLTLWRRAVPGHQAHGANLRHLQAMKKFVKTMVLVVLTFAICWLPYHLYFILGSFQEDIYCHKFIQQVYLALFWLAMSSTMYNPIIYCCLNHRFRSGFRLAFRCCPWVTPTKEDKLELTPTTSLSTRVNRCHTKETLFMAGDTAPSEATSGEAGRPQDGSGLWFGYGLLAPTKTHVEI
Procedure: The NK1 receptor affinity of proposed tachykinin antagonists was devaluated in guinea pig lungs (Keystone Biologicals, Cleveland, OH), affinity for the NK2 receptor evaluated in HSKR-1 cells (which are mouse 3T3 fibroblasts expressing the human jejunal NK2 receptor) and NK-3 receptor affinity was evaluated in freshly collected guinea pig cerebral cortex. Tissues or cells were homogenized with a Polytron in 15 volumes of 50 mM Tris-HCl buffer (pH 7.4, 4°C) and centrifuged. The pellet was resuspended in Tris-HCl buffer and was centrifuged; the pellet was washed twice by resuspension. The final pellet was resuspended at a concentration of 40 mg/ml for tissues (guinea pig lung and cerebral cortex) and 20 mg/ml for cells in incubation buffer and remained at room temperature for at least 15 min prior to use. Receptor binding was initiated by addition of 250 µl membrane preparation in duplicate to 0.1 nM of the following radioligands: ^125I-Bolton Hunter Lys-3 labeled substance P; ^125iodohistidyl-1-neurokinin A; and ^125I-Bolton Hunter labeled Lys-4 eledoisin in a final volume of 500 µl of buffer containing 50 mM Tris-HCl (pH 7.4 at room temperature), 0.1% bovine serum albumin, 2 mM MnCl2, 40 µg/ml bacitracin, 4 µg/ml leupeptin and chymostatin, 1 µM thiorphan and various doses of the putative tachykinin antagonists. Incubations were performed at room temperature for 90 min (NK1 receptor assays) or 2 hr (NK2 and NK3 receptor assays); binding was terminated by addition of 50 mM Tris-HCl buffer (pH 7.4, 4°C) and filtration under vacuum through GF/B filters presoaked with 0.1% polyethyleneimine (NK1 receptor assays) or 0.5% bovine serum albumin (NK2 and NK3 receptor assays). Filter bound radioactivity was quantitated in a gamma counter. Nonspecific binding was defined as binding in the presence of 1 µM substance P, neurokinin A, or eledoisin. Specific binding was calculated by subtracting nonspecific binding from total binding. Competition of iodinated SP, NKA, or eledoisin binding by test compounds or standards was expressed as a percentage of this maximum competition. IC50 values (concentration required to inhibit 50% of receptor binding) were generated for each of the test compounds by nonlinear regression using an iterative curve fitting program (GraphPAD Inplot, San Diego, CA).

[3] = Schild analysis, SP in UC11 cells, mean (95% confidence limits), 2-3 experiments

Structure (SMILES)	Kb [1] [nM]	NK-1 RECEPTOR -SLOPE [1, 3]	IC50 ([2]; HSKR-1 cells (mouse 3T3 fibroblasts expressing human jejunal NK2 receptor), mean of several experiments, read-out: NK-2 IC50) [nM]	antagonism of the receptor mediated SP induced PI turnover ([1]; UC11 cells, Figure 1a, result in words)	IC50 [2] [nM]	affinity for NK2 receptors ([2]; result in words)	Kb ([1]; Schild analysis, SP in UC11 cells, mean (95% confidence limits), 2-3 experiments, read-out: NK-1 RECEPTOR pA2 (converted)) [nM]
COc1cccc(OC)c1C(=O)N1CCC(CCN2CCC(C(N)=O)(c3ccccc3)CC2)(c2ccc(Cl)c(Cl)c2)C1 (racemic) [Example 5A, 1-[2-[3-(3,4-dichloro-phenyl-3-yl)-1-(2,6-dimethoxy-benzoyl)-pyrrolidin-3-yl]-ethyl]-4-phenyl-piperidine-4-carboxylic acid amide hydrochloride]	47.9	1.17 (0.41-1.93)	40	–	–	–	–
COc1cc(C(=O)N2CCC(CCN3CCC(C(N)=O)(c4ccccc4)CC3)(c3ccc(Cl)c(Cl)c3)C2)cc(OC)c1OC (stereo not drawn) [Example 3, 1-[2-[3-(3,4-dichloro-phenyl)-1-(3,4,5-trimethoxy-benzoyl)-pyrrolidin-3-yl]-ethyl]-4-phenyl-piperidine-4-carboxylic acid amide]	–	–	–	dose related antagonism	15	high affinity	–
COc1cc(C(=O)N2CCC(CCN3CCC(C(N)=O)(c4ccccc4)CC3)(c3ccc(Cl)c(Cl)c3)C2)cc(OC)c1OC (racemic) [Example 3A, 1-[2-[3-(3,4-dichloro-phenyl-3-yl)-1-(3,4,5-trimethoxy-benzoyl)-pyrrolidin-3-yl]-ethyl] -4-phenyl-piperidine-4-carboxylic acid amide hydrochloride]	–	0.90 (0.65-1.15)	–	–	21	–	12.3
